Experimental data published in patent US20230398130A1, “METHODS AND COMPOSITIONS FOR DIFFERENTIATING STEM CELLS” (Massachusetts Institute of Technology, priority 2020, published 2023).
Entries after “also recorded” stand apart in the source; their conditions may differ.

Assays:
[1] = system: human small intestinal organoids; experiment: Immunofluorescent imaging for LYZ, human small intestinal organoids; type: cell-based; conditions: 160 nM KPT-330, 6 days
Description: To extend the observations from the murine organoid system, Applicants sought to examine how XPO1 inhibition via KPT-330 may effect human small intestinal stem cells by utilizing a stem-cell enriched human small intestinal organoid model^46 (see Methods).
Immunofluorescent imaging. For immunofluorescence staining of organoids, intestinal organoids in Matrigel were fixed with 4% paraformaldehyde, then transferred to centrifuge tube. After washing with PBS, the isolated organoids were permeabilized with 1% Triton X followed by incubation with blocking buffer (1% BSA+3% Donkey Serum+0.2% Triton X in PBS) at RT. The organoids were then stained with primary antibodies and fluorescent dye-labeled secondary antibodies as well as with DAPI. Slides were covered with […] ® Mounting Media (VECTOR). […] Images were acquired with a confocal laser scanning microscope (Nikon Eclipse 90i). For the analysis of Lysozyme+ cells per organoid area, the number of counted Lysozyme+ cells were normalized to measured organoid surface area. Image J was used for the data analysis.

Paneth cells [2] = experiment: Immunofluorescent imaging of organoids: LYZ+ cells per organoid area; type: cell-based, murine
Description: Immunofluorescent imaging. For immunofluorescence staining of organoids, intestinal organoids in Matrigel were fixed with 4% paraformaldehyde, then transferred to centrifuge tube. After washing with PBS, the isolated organoids were permeabilized with 1% Triton X followed by incubation with blocking buffer (1% BSA+3% Donkey Serum+0.2% Triton X in PBS) at RT. The organoids were then stained with primary antibodies and fluorescent dye-labeled secondary antibodies as well as with DAPI. Slides were covered with […]® Mounting Media (VECTOR). The following primary and secondary antibodies were used for the staining: rabbit anti-Lysozyme (1:1000, Thermo Fisher Scientific), rat anti-E-cadherin (1:1000, Thermo Fisher Scientific), Alexa Fluor 488 and 568 secondary antibodies (1:1000, Invitrogen). Images were acquired with a confocal laser scanning microscope (Nikon Eclipse 90i). For the analysis of Lysozyme+ cells per organoid area, the number of counted Lysozyme+ cells were normalized to measured organoid surface area. Image J was used for the data analysis.

ISC-enriched organoids = experiment: Lysozyme secretion assay, 3-D organoids in ENR+CD, normalized to ATP; type: cell-based, murine
Description: Lysozyme assay (3D culture). ISC-enriched organoids cultured in 3D Matrigel with ENRCV media were passaged to 48-well plate in 3D Matrigel with ENRCV. At day zero, media were replaced to ENR or ENRCD with or without indicated compounds, and media were replaced every other day. At day six, cells were washed twice with basal media and treated with carbamylcholine chloride (Sigma, C4382) for 3 hours. Media were collected and lysozyme activity was measured by EnzChek Lysozyme Assay Kit (ThermoFisher, E22013).
(§1) Lysozyme secretion assay. ISC-enriched organoids in 3D Matrigel culture were passaged to a 48- or 96-well plate and cultured with ENR or ENR+CD media containing DMSO or each drug for 6 days. DMSO- or drug-containing media were changed every other day. On day 6, cells were washed with basal media twice and treated with basal media with or without 10 μM carbamoylcholine chloride for 3 h in a CO2 incubator at 37° C. A part of the conditioned media was collected and used for lysozyme assay (Thermo, E-22013) following the manufacturer's instruction. The fluorescence was measured using excitation/emission of 485/530 nm. CellTiter-Glo 3D Reagent (Promega, G9681) was added afterward, and the cell culture plate was incubated on an orbital shaker at RT for 30 min to induce cell lysis and to stabilize the luminescent signal. The solution was replaced to a 96-well white microplate, and luminescent signals were measured by a microplate reader (infinite M200, Tecan). The standard curve was prepared by diluting recombinant ATP (Promega, P1132). For both assays, a polynomial cubic curve was fitted to a set of standard data, and each sample value was calculated on the Microsoft Excel.
as §1, with “in 3-D” for “in 3D”, “μM carbachol” for “μM carbamoylcholine chloride”, “3 hours” for “3 h”, “C. Conditioned” for “C. A part of the conditioned”, “nm. CTG” for “nm. CellTiter-Glo”, “Reagent” for “Reagent (Promega, G9681)”

Paneth cells [3] = experiment: Flow cytometry of 3D-cultured intestinal organoids (ENR+CD, 6 days): Paneth cell fraction (lysozyme-positive, CD24-mid); type: cell-based, murine
Description: Flow cytometry analysis (3D culture). ISC-enriched organoids cultured in 3D Matrigel with ENRCV media were passaged to 24-well plate in 3D Matrigel with ENRCV. At day zero, media were replaced to ENRCD with or without indicated compounds, and media were replaced every other day. […] Flow cytometry was performed using an LSR Fortessa (BD; Koch Institute Flow Cytometry Core at MIT). The data were analyzed using FlowJo v10 software.
Single live cells were selected by several gating strategies and Paneth cells were identified as lysozyme-high, CD24-mid, side scatter-high (SSC-high) (FIG. 27E). […] To evaluate whether the culture media supplements C and D may alter the effects of the 6 hits, Applicants also performed lysozyme assay in the canonical ENR culture condition in 3-D (because Paneth cells exist in an immature state within ENR, Applicants were unable to robustly quantify Paneth cell number via flow cytometry).
(§2) Flow cytometry. ISC-enriched organoids in 3D Matrigel culture were passaged to a 48-well plate and induced differentiation for 6 days by ENR+CD media containing DMSO or each drug indicated in the figures. DMSO- or drug-containing media were changed every other day. […] After vigorous pipetting and incubation at 37° C. for 15 min, the cell solution was diluted twice with basal media and centrifuged at 300 rcf for 3 min. […] The cell solution was centrifuged again at 300 rcf for 3 min at 4° C. to pellet the cells. […] Cells were centrifuged again for 3 min at 300 rcf and blocked with staining buffer (FACS buffer containing 0.5% Tween20 (Sigma, P2287)) for 15 min at RT in the dark. […] Flow cytometry was performed using an LSR Fortessa (BD; Koch Institute Flow Cytometry Core at MIT). Flow cytometry data were analyzed using FlowJo X v10.6.1 software.
Live Paneth cells were identified as LYZ-high, CD24-mid, side scatter-high (SSC-high) (FIG. 50F).
as §2, with “organoids in 3-D Matrigel culture” for “organoids in 3D Matrigel culture”, “to a 24- or 48-well plate” for “to a 48-well plate”

O=C(/C=C\n1cnc(-c2cc(C(F)(F)F)cc(C(F)(F)F)c2)n1)NNc1cnccn1 [KPT-330]
LYZ+ cell abundance (IF imaging) [1]: increased LYZ+ cell abundance | LYZ+ Paneth cell number (IF imaging) (Paneth cells [2]; ENR with or without 160 nM KPT-330, 3 days): pro-Paneth differentiation effect is also observed | LYZ+ Paneth cell number (IF imaging) (Paneth cells [2]; ENR+CD with 160 nM KPT-330, 6 days): an increase in Paneth cell number | LYZ secretion, dose dependency (ISC-enriched organoids; KPT-330 below 160 nM for 6 days, basal and Cch-stimulated): enhanced Paneth cell activity in a dose-dependent manner; also recorded: LYZ secretion increasing in a dose-dependent manner | enrichment in mature Paneth cells at day 6 (LYZ secretion assay) (ISC-enriched organoids; KPT-330 treatment day 4-6): minorly enriched; also recorded: slightly enriched | most effective dose among tested concentrations (ISC-enriched organoids; LYZ secretion, ENR+CD 6 days): 160 nM | enrichment in mature Paneth cells at day 6 (Paneth cells [3]; KPT-330 treatment day 0-2 of 6-day ENR+CD differentiation): greatest enrichment in mature Paneth cells | enrichment in mature Paneth cells at day 6 (Paneth cells [3]; KPT-330 treatment day 2-4): moderate enrichment | enrichment in mature Paneth cells at day 6 (flow cytometry) (Paneth cells [3]; KPT-330 treatment day 4-6): no different than untreated | mature Paneth cell population within organoids (Paneth cells [3]; hit compound at most potent dose from 2.5-D screening, ENR+CD 6 days, 3-D culture, vs control): significantly enhanced the mature Paneth cell population
